Measurements: patent publication US20010038824A1, “Intranasal cyclic peptide formulations” (priority 2000, published 2001)
Numbered stars: 1 amine (or outer) side, 2 acyl side, 3 side chain; on linkers, the order of the positions; unused ones are H or OH. Bridge positions count the residues as written; N and C are the ends. Square brackets hold non-standard residues; d marks the D form. Peptide text beside a SMILES is read from it. * marks the point of attachment. ξ: configuration not given here. Hexadecanoyl(3R-amino) = CCCCCCCCCCCCC[C@H](CC(=O)[*:2])N[*:1]; X11 = CCCCCOc1ccc(-c2ccc(CC[C@H](CC(=O)[*:1])N[*:2])cc2)cc1; ξTyr(3-NO2) = NC(Cc1ccc(O)c([N+](=O)[O-])c1)C(=O)O; X15 = CCCCCCCCCCCCCCC[C@H](CC(=O)[*:2])N(C)[*:1]; X16 = NCC(=O)Nc1cc(CC(N[*:1])C(=O)[*:2])ccc1O; X4 = CCCCCCCCCCCCC[C@H](CC(=O)[*:1])O[*:2]; X3 = NCCCN(CCCC(N[*:1])C(=O)[*:2])[*:3]; X2 = NC(=O)CC(O)C(N[*:1])C(=O)[*:2]; X12 = CN(C)CCCC(N[*:1])C(=O)[*:2]; X1 = O=C(C1C(O)CCN1[*:1])[*:2]; ξOrn(3-OH) = NCCC(O)C(N)C(=O)O; ξY = NC(Cc1ccc(O)cc1)C(=O)O; X14 = NCCCNC(CCCN)C(=O)*; X13 = CCCCCCCCCCCCCCCN*; ξHyp = O=C(O)C1CC(O)CN1; ξOrn = NCCCC(N)C(=O)O; ξT = CC(O)C(N)C(=O)O; ξV = CC(C)C(N)C(=O)O; ξP = O=C(O)C1CCCN1; ξA = CC(N)C(=O)O; Sar = CNCC(=O)O

Legend:
Assay type in all cases: cell-based
mouse hepatocytes = test: In vitro hepatotoxicity test; conditions: mouse hepatocyte monolayers, 1 day exposure, morphological evaluation
From the text: The mouse hepatocytes were isolated by a collagenase digestion and cultured in microtest plates. The hepatocyte monolayers were exposed to the test Aerothricins in the culture system for 1 day. After the culture period, the hepatocytes were observed under a microscope and evaluated morphologically. The degree of the morphological alteration (degeneration) of the hepatocytes by the test Aerothricins were compared with WF11243 and LY303366.

[1] = tested on: Aspegillus fumigatus CF1003; test: In vitro antifungal activity, broth micro-dilution; conditions: YNB medium with 0.2% agarose, 1-2 days at 35° C.
Procedure: (§1) The in vitro antifungal activities of the representative Aerothricins of the present study were evaluated by determining the 50% inhibitory concentration (IC50), which was calculated as the lowest concentration of an antifungal to inhibit the growth of fungus to […] turbidity compared with the drug-free control growth spectrophotometrically.
(§2) The IC50 values were determined by the broth micro-dilution procedure based on NCCLS Approved Standard with the following minor modifications (National Committee for Clinical Laboratory Standards. (1997) Reference method for broth dilution antifungal susceptibility testing for yeasts. Approved standard. Document M27-A). Yeast Nitrogen Base (YNB; Difco Lab.) supplemented with 1% glucose and 0.25% K2HPO4 was used as testing medium for yeast, the same medium solidified with 0.2% low melting point agarose (BRL) was used for filamentous fungi. Inoculum size was 1-3×10^4 cells/ml, and incubation was performed for 1-2 days at 35° C.

Fusarium solani CF1088 = test: In vitro antifungal activity, broth micro-dilution; conditions: YNB medium with 0.2% agarose, 1-2 days at 35° C.
Procedure: as §1, §2

Candida albicans CY1002 = test: In vitro antifungal activity, broth micro-dilution; conditions: YNB medium, 1-2 days at 35° C.
Procedure: as §1, §2

Structure (SMILES) | Cytotoxicity to hepatocyte (mouse hepatocytes) | In vitro Antifungal activity, IC50, Aspegillus fumigatus CF1003 [1] | In vitro Antifungal activity, IC50, Fusarium solani CF1088 (Fusarium solani CF1088) | In vitro Antifungal activity, IC50, Candida albicans CY1002 (Candida albicans CY1002)
CCCCCCCCCCOc1ccc(CC[C@@H]2CC(=O)NC(C(C)O)C(=O)NC(C)C(=O)NC(Cc3ccc(O)cc3)C(=O)NC(C(C)C)C(=O)N3CC(O)CC3C(=O)NC(C(C)O)C(=O)NC(C(C)O)C(=O)N3CCC(O)C3C(=O)NC(C(O)CC(N)=O)C(=O)NCC(=O)NC(C(C)O)C(=O)NC(CCCN)C(=O)N2)cc1 (single isomer, unassigned) [Aerothricin 47] | >100 µg/mL |  |  | 
CCCCCCCCCCCCC[C@@H]1CC(=O)NC(C(C)O)C(=O)NC(C)C(=O)NC(Cc2ccc(OC)cc2)C(=O)NC(C(C)C)C(=O)N2CC(O)CC2C(=O)NC(C(C)O)C(=O)NC(C(C)O)C(=O)N2CCC(O)C2C(=O)NC(C(O)CC(N)=O)C(=O)NCC(=O)NC(C(C)O)C(=O)NC(CCCN(C)C)C(=O)O1 (stereo partly shown) [Aerothricin 12] ([ξT][ξA][ξY](Me)[ξV][ξHyp][ξT][ξT][X1][X2]G[ξT][X12]; linker N-C via X4) |  | 0.10 µg/mL | 2.20 µg/mL | 0.09 µg/mL
CCCCCCCCCCCCC[C@@H]1CC(=O)NC(C(C)O)C(=O)NC(C)C(=O)NC(Cc2ccc(O)cc2)C(=O)NC(C(C)C)C(=O)N2CC(O)CC2C(=O)NC(C(C)O)C(=O)NC(C(C)O)C(=O)N2CCC(O)C2C(=O)NC(C(O)CC(N)=O)C(=O)NCC(=O)NC(C(C)O)C(=O)NC(CCCNC(=O)CNC)C(=O)O1 (stereo partly shown) [Aerothricin 14] ([ξT][ξA][ξY][ξV][ξHyp][ξT][ξT][X1][X2]G[ξT][ξOrn](Sar); linker N-C via X4) | >100 µg/mL |  |  | 
CCCCCCCCCCCCC[C@@H]1CC(=O)NC(C(C)O)C(=O)NC(C)C(=O)NC(Cc2ccc(O)cc2)C(=O)NC(C(C)C)C(=O)N2CC(O)CC2C(=O)NC(C(C)O)C(=O)NC(C(C)O)C(=O)N2CCC(O)C2C(=O)NC(C(O)CC(N)=O)C(=O)NCC(=O)NC(C(C)O)C(=O)NC(CCCNC(=O)C2CCCN2)C(=O)O1 (stereo partly shown) [Aerothricin 15] ([ξT][ξA][ξY][ξV][ξHyp][ξT][ξT][X1][X2]G[ξT][ξOrn](ξP); linker N-C via X4) | >100 µg/mL |  |  | 
CCCCCCCCCCCCC[C@@H]1CC(=O)NC(C(C)O)C(=O)NC(C)C(=O)NC(Cc2ccc(O)c(NC(=O)CN)c2)C(=O)NC(C(C)C)C(=O)N2CC(O)CC2C(=O)NC(C(C)O)C(=O)NC(C(C)O)C(=O)N2CCC(O)C2C(=O)NC(C(O)CC(N)=O)C(=O)NCC(=O)NC(C(C)O)C(=O)NC(CCCNC(=O)CN)C(=O)O1 (stereo partly shown) [Aerothricin 21] ([ξT][ξA][X16][ξV][ξHyp][ξT][ξT][X1][X2]G[ξT][ξOrn](Gly); linker N-C via X4) | >100 µg/mL |  |  | 
CCCCCCCCCCCCC[C@@H]1CC(=O)NC(C(C)O)C(=O)NC(C)C(=O)NC(Cc2ccc(O)cc2)C(=O)NC(C(C)C)C(=O)N2CC(O)CC2C(=O)NC(C(C)O)C(=O)NC(C(C)O)C(=O)N2CCC(O)C2C(=O)NC(C(O)CCN)C(=O)NCC(=O)NC(C(C)O)C(=O)NC(CCCN)C(=O)O1 (stereo partly shown) [Aerothricin 31] ([ξT][ξA][ξY][ξV][ξHyp][ξT][ξT][X1][ξOrn(3-OH)]G[ξT][ξOrn]; linker N-C via X4) |  | 0.49 µg/mL | 0.70 µg/mL | 0.07 µg/mL
CCCCCCCCCCCCC[C@@H]1CC(=O)NC(C(C)O)C(=O)NC(C)C(=O)NC(Cc2ccc(O)c([N+](=O)[O-])c2)C(=O)NC(C(C)C)C(=O)N2CC(O)CC2C(=O)NC(C(C)O)C(=O)NC(C(C)O)C(=O)N2CCC(O)C2C(=O)NC(C(O)CC(N)=O)C(=O)NCC(=O)NC(C(C)O)C(=O)NC(CCCN)C(=O)N1 (stereo partly drawn) [Aerothricin 39] (cyclo(G[ξT][ξOrn][Hexadecanoyl(3R-amino)][ξT][ξA][ξTyr(3-NO2)][ξV][ξHyp][ξT][ξT][X1][X2])) |  | 0.17 µg/mL | 0.70 µg/mL | 0.09 µg/mL
CCCCCOc1ccc(-c2ccc(CC[C@@H]3CC(=O)NC(C(C)O)C(=O)NC(C)C(=O)NC(Cc4ccc(O)c([N+](=O)[O-])c4)C(=O)NC(C(C)C)C(=O)N4CC(O)CC4C(=O)NC(C(C)O)C(=O)NC(C(C)O)C(=O)N4CCC(O)C4C(=O)NC(C(O)CC(N)=O)C(=O)NCC(=O)NC(C(C)O)C(=O)NC(CCCN)C(=O)N3)cc2)cc1 (stereo partly shown) [Aerothricin 54] ([ξT][ξA][ξTyr(3-NO2)][ξV][ξHyp][ξT][ξT][X1][X2]G[ξT][ξOrn]; linker N-C via X11) |  | 0.17 µg/mL | 0.74 µg/mL | 0.15 µg/mL
CCCCCCCCCCCCCCCNC(=O)[C@@H]1CC(=O)NC(C(C)O)C(=O)NC(C)C(=O)NC(Cc2ccc(O)cc2)C(=O)NC(C(C)C)C(=O)N2CC(O)CC2C(=O)NC(C(C)O)C(=O)NC(C(C)O)C(=O)N2CCC(O)C2C(=O)NC(C(O)CC(N)=O)C(=O)NCC(=O)NC(C(C)O)C(=O)NC(CCCN(C)C)C(=O)N1 (stereo partly drawn) [Aerothricin 75] ([ξT][ξA][ξY][ξV][ξHyp][ξT][ξT][X1][X2]G[ξT][X12]D-X13; lactam N-13) |  | 0.10 µg/mL | 1.40 µg/mL | 0.15 µg/mL
CCCCCCCCCCCCCCCNC(=O)[C@@H]1CC(=O)NC(C(C)O)C(=O)NC(C)C(=O)NC(Cc2ccc(O)c([N+](=O)[O-])c2)C(=O)NC(C(C)C)C(=O)N2CC(O)CC2C(=O)NC(C(C)O)C(=O)NC(C(C)O)C(=O)N2CCC(O)C2C(=O)NC(C(O)CC(N)=O)C(=O)NCC(=O)NC(C(C)O)C(=O)NC(CCCN)C(=O)N1 (stereo partly drawn) [Aerothricin 77] ([ξT][ξA][ξTyr(3-NO2)][ξV][ξHyp][ξT][ξT][X1][X2]G[ξT][ξOrn]D-X13; lactam N-13) |  | 0.10 µg/mL | 0.67 µg/mL | 0.13 µg/mL
CCCCCCCCCCCCCCC[C@@H]1CC(=O)NC(C(C)O)C(=O)NC(C)C(=O)NC(Cc2ccc(O)cc2)C(=O)NC(C(C)C)C(=O)N2CC(O)CC2C(=O)NC(C(C)O)C(=O)NC(C(C)O)C(=O)N2CCC(O)C2C(=O)NC(C(O)CC(N)=O)C(=O)NCC(=O)NC(C(C)O)C(=O)NC(CCCN)C(=O)N1C (stereo partly shown) [Aerothricin 95] (cyclo(G[ξT][ξOrn][X15][ξT][ξA][ξY][ξV][ξHyp][ξT][ξT][X1][X2])) |  | 0.10 µg/mL | 0.74 µg/mL | 0.14 µg/mL
CCCCCCCCCCCCC[C@@H]1CC(=O)NC(C(C)O)C(=O)NC(C)C(=O)NC(Cc2ccc(O)cc2)C(=O)NC(C(C)C)C(=O)N2CC(O)CC2C(=O)NC(C(C)O)C(=O)NC(C(C)O)C(=O)N2CCC(O)C2C(=O)NC(C(O)CC(N)=O)C(=O)NCC(=O)NC(C(C)O)C(=O)NC(CCCN(CCCN)C(=O)C(CCCN)NCCCN)C(=O)O1 (stereo partly shown) [Aerothricin 136] ([ξT][ξA][ξY][ξV][ξHyp][ξT][ξT][X1][X2]G[ξT][X3](X14); linker N-C via X4) |  | 0.28 µg/mL | 0.04 µg/mL | 0.20 µg/mL
